One experiment concerns the target Bcl-2 (Homo sapiens, UniProt P10415). In words: Ki determination for Bcl-2 (BCL-2 family binding spectrum). The conditions noted are these: read-out: Ki BCL-2. The text has this: (§1) To assess the binding and affinity of compounds that antagonize the interaction between a peptide and an acceptor protein, a fluorescence polarization assay (FPA) utilizing a fluoresceinated peptidomimetic macrocycle derived from a peptidomimetic precursor sequence is used, for example. The FPA technique measures the molecular orientation and mobility using polarized light and fluorescent tracer. […] A compound that antagonizes the interaction between the fluoresceinated peptidomimetic macrocycle and an acceptor protein will be detected in a competitive binding FPA experiment.
(§2) For example, putative antagonist compounds (1 nM to 1 mM) and a fluoresceinated peptidomimetic macrocycle (25 nM) are incubated with the acceptor protein (50 nM) in binding buffer (140 mM NaCl, 50 mM Tris-HCL, pH 7.4) for 30 minutes at room temperature. Antagonist binding activity is measured, for example, by fluorescence polarization on a luminescence spectrophotometer (e.g. Perkin-Elmer LS50B). Kd values may be determined by nonlinear regression analysis using, for example, Graphpad Prism software (GraphPad Software, Inc., San Diego, Calif.).

For a further experiment, the target named is Mcl-1 (Homo sapiens, UniProt Q07820). Kind of experiment: Ki determination for Mcl-1 (BCL-2 family binding spectrum). The conditions noted are these: read-out: Ki MCL-1. The method, boiled down: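 Competitive fluorescence polarization assay in which compounds displace a fluoresceinated peptidomimetic macrocycle tracer from Mcl-1. Affinity constants were obtained by nonlinear regression.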
Mcl-1, sequence (Q07820 whole entry, species assumed): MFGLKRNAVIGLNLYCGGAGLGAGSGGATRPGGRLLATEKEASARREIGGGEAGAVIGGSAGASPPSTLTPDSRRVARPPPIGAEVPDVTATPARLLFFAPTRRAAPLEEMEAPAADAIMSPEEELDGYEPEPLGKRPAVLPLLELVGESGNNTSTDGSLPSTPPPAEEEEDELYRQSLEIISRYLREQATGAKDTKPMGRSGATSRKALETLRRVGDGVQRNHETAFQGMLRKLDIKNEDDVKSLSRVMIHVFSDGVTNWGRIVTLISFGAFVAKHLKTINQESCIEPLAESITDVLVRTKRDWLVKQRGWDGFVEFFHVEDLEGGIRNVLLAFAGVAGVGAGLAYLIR

A further experiment addresses Bcl-xL (Homo sapiens, UniProt Q07817). Kind of experiment: Ki determination for Bcl-xL (BCL-2 family binding spectrum). The conditions noted are these: read-out: Ki BCL-XL.
Description: as §1, §2

Positions of bridges follow the written chain, without caps; N, C: chain ends. Non-standard residues stand in square brackets, D forms with d. Residues, ends and D or L forms follow the SMILES beside them. Phe(4-CF3) = N[C@@H](Cc1ccc(C(F)(F)F)cc1)C(=O)O; Phe(4-tBu) = CC(C)(C)c1ccc(C[C@H](N)C(=O)O)cc1; Phe(4-F) = N[C@@H](Cc1ccc(F)cc1)C(=O)O; Igl = N[C@H](C(=O)O)C1Cc2ccccc2C1; R8 = C=CCCCCCC[C@@](C)(N)C(=O)O; Cha = N[C@@H](CC1CCCCC1)C(=O)O; αMeL = CC(C)C[C@](C)(N)C(=O)O; hLeu = CC(C)CC[C@H](N)C(=O)O; S5 = C=CCCC[C@](C)(N)C(=O)O; Aib = CC(C)(N)C(=O)O

Bcl-2, sequence (P10415 whole entry, species assumed): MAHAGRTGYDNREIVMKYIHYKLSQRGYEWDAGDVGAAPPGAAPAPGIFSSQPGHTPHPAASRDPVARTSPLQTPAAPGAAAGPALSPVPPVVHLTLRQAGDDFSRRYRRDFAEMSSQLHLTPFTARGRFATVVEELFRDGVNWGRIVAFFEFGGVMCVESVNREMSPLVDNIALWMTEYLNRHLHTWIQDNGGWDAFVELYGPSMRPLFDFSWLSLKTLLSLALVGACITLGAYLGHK
Bcl-xL, sequence (Q07817 whole entry, species assumed): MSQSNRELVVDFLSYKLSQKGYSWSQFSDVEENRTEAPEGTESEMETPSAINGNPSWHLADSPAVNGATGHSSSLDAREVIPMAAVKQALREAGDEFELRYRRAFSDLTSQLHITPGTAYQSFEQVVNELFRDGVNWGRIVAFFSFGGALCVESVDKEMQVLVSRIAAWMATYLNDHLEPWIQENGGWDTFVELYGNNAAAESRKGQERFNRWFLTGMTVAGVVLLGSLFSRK

Broadly, the Ki is a dissociation constant, usually derived from enzyme kinetics or from competition with a known ligand. Regarding `CC[C@H](C)[C@H](NC(C)=O)C(=O)N[C@@H](Cc1c[nH]c2ccccc12)C(=O)N[C@H](C(=O)N[C@@H](C)C(=O)N[C@@H](CCC(N)=O)C(=O)N[C@@H](CCC(=O)O)C(=O)N[C@@H](CC(C)C)C(=O)N[C@@H](CCCNC(=N)N)C(=O)N[C@]1(C)CCCCCCC=CCCC[C@@](C)(C(=O)N[C@@H](Cc2ccc(O)cc2)C(=O)N[C@@H](Cc2ccc(O)cc2)C(=O)N[C@@H](C)C(=O)N[C@@H](CCCNC(=N)N)C(=O)N[C@@H](CCCNC(=N)N)C(N)=O)NC(=O)[C@H](CC(N)=O)NC(=O)[C@H](Cc2ccccc2)NC(=O)[C@H](CCC(=O)O)NC(=O)[C@H](CC(=O)O)NC(=O)CNC(=O)[C@H]([C@@H](C)CC)NC1=O)[C@@H](C)CC` [compound 1629], at Bcl-2, the inhibition constant Ki came to 23.5 nM.
For `CC[C@H](C)[C@H](NC(C)=O)C(=O)N[C@@H](Cc1c[nH]c2ccccc12)C(=O)N[C@@H](Cc1ccc(C(C)(C)C)cc1)C(=O)N[C@@H](C)C(=O)N[C@@H](CCC(N)=O)C(=O)N[C@@H](C)C(=O)N[C@@H](CC(C)C)C(=O)N[C@@H](CCCNC(=N)N)C(=O)N[C@]1(C)CCCCCCC=CCCC[C@@](C)(C(=O)N[C@@H](Cc2ccc(O)cc2)C(=O)N[C@@H](Cc2ccc(O)cc2)C(=O)N[C@@H](C)C(N)=O)NC(=O)[C@H](CC(N)=O)NC(=O)[C@H](Cc2ccccc2)NC(=O)[C@H](C)NC(=O)[C@H](CC(=O)O)NC(=O)CNC(=O)[C@H]([C@@H](C)CC)NC1=O` [compound 1684] (Ac-IW[Phe(4-tBu)]AQALR[R8]IGDAFN[S5]YYA-NH2; staple 9-16), the inhibition constant Ki on Bcl-2 was more than 1000 nM.
On the same count and under the same terms, in the case of `CC[C@H](C)[C@H](NC(C)=O)C(=O)N[C@@H](Cc1c[nH]c2ccccc12)C(=O)N[C@H](C(=O)N[C@@H](C)C(=O)N[C@@H](CCC(N)=O)C(=O)N[C@@H](C)C(=O)N[C@@H](CC1CCCCC1)C(=O)N[C@@H](CCCNC(=N)N)C(=O)N[C@]1(C)CCCCCCC=CCCC[C@@](C)(C(=O)N[C@@H](Cc2ccc(O)cc2)C(=O)N[C@@H](Cc2ccc(O)cc2)C(=O)N[C@@H](C)C(N)=O)NC(=O)[C@H](CC(N)=O)NC(=O)[C@H](Cc2ccccc2)NC(=O)[C@H](C)NC(=O)[C@H](CC(=O)O)NC(=O)CNC(=O)[C@H]([C@@H](C)CC)NC1=O)[C@@H](C)CC` [compound 1687] (Ac-IWIAQA[Cha]R[R8]IGDAFN[S5]YYA-NH2; staple 9-16) it was more than 1000 nM; in that of `CC[C@H](C)[C@H](NC(C)=O)C(=O)N[C@@H](Cc1c[nH]c2ccccc12)C(=O)N[C@H](C(=O)N[C@@H](C)C(=O)N[C@@H](CCC(N)=O)C(=O)N[C@@H](C)C(=O)N[C@H](C(=O)N[C@@H](CCCNC(=N)N)C(=O)N[C@]1(C)CCCCCC/C=C\CCC[C@@](C)(C(=O)N[C@@H](Cc2ccc(O)cc2)C(=O)N[C@@H](Cc2ccc(O)cc2)C(=O)N[C@@H](C)C(N)=O)NC(=O)[C@H](CC(N)=O)NC(=O)[C@H](Cc2ccccc2)NC(=O)[C@H](C)NC(=O)[C@H](CC(=O)O)NC(=O)CNC(=O)[C@H]([C@@H](C)CC)NC1=O)C1Cc2ccccc2C1)[C@@H](C)CC` [compound 1693] (Ac-IWIAQA[Igl]R[R8]IGDAFN[S5]YYA-NH2; staple (Z) 9-16), more than 1000 nM; in that of `CC[C@H](C)[C@H](NC(C)=O)C(=O)N[C@@H](Cc1c[nH]c2ccccc12)C(=O)N[C@H](C(=O)N[C@@H](C)C(=O)N[C@@H](CCC(N)=O)C(=O)N[C@@H](C)C(=O)N[C@@H](Cc1ccc(C(F)(F)F)cc1)C(=O)N[C@@H](CCCNC(=N)N)C(=O)N[C@]1(C)CCCCCCC=CCCC[C@@](C)(C(=O)N[C@@H](Cc2ccc(O)cc2)C(=O)N[C@@H](Cc2ccc(O)cc2)C(=O)N[C@@H](C)C(N)=O)NC(=O)[C@H](CC(N)=O)NC(=O)[C@H](Cc2ccccc2)NC(=O)[C@H](C)NC(=O)[C@H](CC(=O)O)NC(=O)CNC(=O)[C@H]([C@@H](C)CC)NC1=O)[C@@H](C)CC` [compound 1694] (Ac-IWIAQA[Phe(4-CF3)]R[R8]IGDAFN[S5]YYA-NH2; staple 9-16), more than 1000 nM.
With `CC[C@H](C)[C@H](NC(=O)[C@H](Cc1c[nH]c2ccccc12)NC(=O)[C@](C)(CC(C)C)NC(C)=O)C(=O)N[C@@H](C)C(=O)N[C@@H](CCC(N)=O)C(=O)N[C@@H](C)C(=O)N[C@@H](CC(C)C)C(=O)N[C@@H](CCCNC(=N)N)C(=O)N[C@]1(C)CCCCCCC=CCCC[C@@](C)(C(=O)N[C@@H](Cc2ccc(O)cc2)C(=O)N[C@@H](Cc2ccc(O)cc2)C(=O)N[C@@H](C)C(N)=O)NC(=O)[C@H](CC(N)=O)NC(=O)[C@H](Cc2ccccc2)NC(=O)[C@H](C)NC(=O)[C@H](CC(=O)O)NC(=O)CNC(=O)[C@H]([C@@H](C)CC)NC1=O` [compound 1705] (Ac-[αMeL]WIAQALR[R8]IGDAFN[S5]YYA-NH2; staple 9-16), the inhibition constant Ki at Mcl-1 worked out at 5.2 nM; on Bcl-xL, 8.4 nM.
With `CC[C@H](C)[C@H](NC(C)=O)C(=O)N[C@@H](Cc1c[nH]c2ccccc12)C(=O)N[C@H](C(=O)N[C@@H](C)C(=O)NC(C)(C)C(=O)N[C@@H](C)C(=O)N[C@@H](CC(C)C)C(=O)N[C@@H](CCCNC(=N)N)C(=O)N[C@]1(C)CCCCCCC=CCCC[C@@](C)(C(=O)N[C@@H](Cc2ccc(O)cc2)C(=O)N[C@@H](Cc2ccc(O)cc2)C(=O)N[C@@H](C)C(N)=O)NC(=O)[C@H](CC(N)=O)NC(=O)[C@H](Cc2ccccc2)NC(=O)[C@H](C)NC(=O)[C@H](CC(=O)O)NC(=O)CNC(=O)[C@H]([C@@H](C)CC)NC1=O)[C@@H](C)CC` [compound 1708] (Ac-IWIA[Aib]ALR[R8]IGDAFN[S5]YYA-NH2; staple 9-16), the Ki at Bcl-2 came to 120 nM.
The same measure, in the same setting: to `CC[C@H](C)[C@H](NC(C)=O)C(=O)N[C@@H](Cc1c[nH]c2ccccc12)C(=O)N[C@H](C(=O)N[C@@H](C)C(=O)N[C@@H](C)C(=O)N[C@@H](C)C(=O)N[C@@H](CC(C)C)C(=O)N[C@@H](CCCCN)C(=O)N[C@]1(C)CCCCCCC=CCCC[C@@](C)(C(=O)N[C@@H](Cc2ccc(O)cc2)C(=O)N[C@@H](Cc2ccc(O)cc2)C(=O)N[C@@H](C)C(N)=O)NC(=O)[C@H](CC(N)=O)NC(=O)[C@H](Cc2ccccc2)NC(=O)[C@H](C)NC(=O)[C@H](CC(=O)O)NC(=O)CNC(=O)[C@H]([C@@H](C)CC)NC1=O)[C@@H](C)CC` [compound 1737] (Ac-IWIAAALK[R8]IGDAFN[S5]YYA-NH2; staple 9-16) belongs 25.6 nM.
Consider `CC[C@H](C)[C@H](NC(C)=O)C(=O)N[C@@H](Cc1c[nH]c2ccccc12)C(=O)N[C@H](C(=O)N[C@@H](C)C(=O)N[C@@H](CCC(N)=O)C(=O)N[C@@H](C)C(=O)N[C@@H](CC(C)C)C(=O)N[C@@H](CCCNC(=N)N)C(=O)N[C@]1(C)CCCCCCC=CCCC[C@@](C)(C(=O)N[C@@H](Cc2ccc(O)cc2)C(=O)N[C@@H](Cc2ccc(O)cc2)C(=O)N[C@@H](C)C(N)=O)NC(=O)[C@H](CC(N)=O)NC(=O)[C@H](Cc2ccc(C(C)(C)C)cc2)NC(=O)[C@H](C)NC(=O)[C@H](CC(=O)O)NC(=O)CNC(=O)[C@H]([C@@H](C)CC)NC1=O)[C@@H](C)CC` [compound 1745] (Ac-IWIAQALR[R8]IGDA[Phe(4-tBu)]N[S5]YYA-NH2; staple 9-16), for which the Ki at Mcl-1 came out at 21.2 nM; at Bcl-xL it was 154 nM.
For the compound `CC[C@H](C)[C@H](NC(C)=O)C(=O)N[C@@H](Cc1c[nH]c2ccccc12)C(=O)N[C@H](C(=O)N[C@@H](C)C(=O)N[C@@H](C)C(=O)N[C@@H](C)C(=O)N[C@@H](CC(C)C)C(=O)N[C@@H](CCCNC(=N)N)C(=O)N[C@]1(C)CCCCCCC=CCCC[C@@](C)(C(=O)N[C@@H](Cc2ccc(O)cc2)C(=O)N[C@@H](Cc2ccc(O)cc2)C(=O)N[C@@H](C)C(N)=O)NC(=O)[C@H](Cc2c[nH]cn2)NC(=O)[C@H](Cc2ccccc2)NC(=O)[C@H](C)NC(=O)[C@H](CC(=O)O)NC(=O)CNC(=O)[C@H]([C@@H](C)CC)NC1=O)[C@@H](C)CC` [compound 1752] (Ac-IWIAAALR[R8]IGDAFH[S5]YYA-NH2; staple 9-16), the Ki was determined as 8 nM at Mcl-1 and 36.3 nM at Bcl-xL.
In the case of `CC[C@H](C)[C@H](NC(C)=O)C(=O)N[C@@H](Cc1c[nH]c2ccccc12)C(=O)N[C@H](C(=O)N[C@@H](C)C(=O)N[C@@H](CCC(N)=O)C(=O)N[C@@H](C)C(=O)N[C@@H](CC(C)C)C(=O)N[C@@H](CCCNC(=N)N)C(=O)N[C@]1(C)CCCCCCC=CCCC[C@@](C)(C(=O)N[C@@H](Cc2ccc(O)cc2)C(=O)N[C@@H](Cc2ccc(F)cc2)C(=O)N[C@@H](C)C(N)=O)NC(=O)[C@H](CC(N)=O)NC(=O)[C@H](Cc2ccccc2)NC(=O)[C@H](C)NC(=O)[C@H](CC(=O)O)NC(=O)CNC(=O)[C@H](CCC(C)C)NC1=O)[C@@H](C)CC` [compound 1777] (Ac-IWIAQALR[R8][hLeu]GDAFN[S5]Y[Phe(4-F)]A-NH2; staple 9-16), the Ki on Mcl-1 worked out at 27 nM; on Bcl-xL, 13 nM.
The matching figures for `CC[C@H](C)[C@H](NC(C)=O)C(=O)N[C@@H](Cc1c[nH]c2ccccc12)C(=O)N[C@H](C(=O)N[C@@H](C)C(=O)N[C@@H](CCC(N)=O)C(=O)N[C@@H](C)C(=O)N[C@@H](C)C(=O)N[C@@H](CCCNC(=N)N)C(=O)N[C@]1(C)CCCCCCC=CCCC[C@@](C)(C(=O)N[C@@H](Cc2ccc(F)cc2)C(=O)N[C@@H](Cc2ccc(F)cc2)C(=O)N[C@@H](C)C(N)=O)NC(=O)[C@H](CC(N)=O)NC(=O)[C@H](Cc2ccccc2)NC(=O)[C@H](C)NC(=O)[C@H](CC(=O)O)NC(=O)CNC(=O)[C@H](CCC(C)C)NC1=O)[C@@H](C)CC` [compound 1781] (Ac-IWIAQAAR[R8][hLeu]GDAFN[S5][Phe(4-F)][Phe(4-F)]A-NH2; staple 9-16): more than 1000 nM and more than 1000 nM.
